From patent US8242275B2, “Bicyclic pyrazole compounds as antibacterial agents” (Janssen Pharmaceutica NV, priority 2005, dated 2012)
Values after ≈ are worked out from the molar mass of the structure shown. Where a name gives a salt, the structure may show the parent alone. Read-outs that look alike come from different tables or passages of the source.

Columns and labels:
Format in all cases: cell-based
[1] = tested on: CipR MRSA OC4222; experiment: Resistant strains assay (broth microdilution MIC); details: Staphylococcus aureus, read-out: MIC, Column G
Description: Testing protocols followed NCCLS methodology for broth microdilution assays.

[2] = tested on: E. coli ATCC25922; experiment: In vitro antibacterial activity (MIC assay), broth microdilution; details: Escherichia coli
Outline: (§1)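 Broth microdilution per NCCLS M7-A5: 11-point 2-fold compound dilutions from DMSO stocks, inoculum about 5×10^5 CFU/mL, incubation 35° C for 16–24 h. MIC scored visually against no-compound growth controls, in μg/mL.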

[3] = tested on: S. aureus ATCC13709; experiment: as above
Outline: as §1

[4] = tested on: S. pneumoniae ATCC49619; experiment: as above
Outline: as §1

[5] = obtained with E. coli ATCC25922, read-out: E. coli MIC, data marked (*)
[6] = Staphylococcus aureus, ATCC13709; read-out: S. aureus ATCC13709 MIC
[7] = Streptococcus pneumoniae, ATCC49619; read-out: S. pneumoniae ATCC49619 MIC

MIC ([1]; CipR MRSA OC4222)	MIC [2, 5]	MIC [3, 6]	MIC [4, 7]	Structure (SMILES)	MIC ([1]; MRSA)	MIC ([2]; ATCC25922, read-out: E. coli MIC, data marked (*))	MIC ([3]; Staphylococcus aureus, ATCC13709, read-out: S. aureus ATCC13709 MIC)	MIC ([4]; Streptococcus pneumoniae, ATCC49619, read-out: S. pneumoniae ATCC49619 MIC)
2 µg/mL (≈ 3.59 µM)	> 16 µg/mL	2 µg/mL (≈ 3.59 µM)	> 16 µg/mL	CCOC(=O)c1cc2c(cc1C(=O)NC1CCc3nn(-c4ccnc5ccc(OC)cc45)cc3C1)NC(=O)CS2 (stereo not shown) [Example 135, 6-[2-(6-Methoxy-quinolin-4-yl)-4,5,6,7-tetrahydro-2H-indazol-5-ylcarbamoyl]-3-oxo-3,4-dihydro-2H-benzo[1,4]thiazine-7-carboxylic acid ethyl ester]				
0.25 µg/mL (≈ 0.499 µM)	> 16 µg/mL	0.25 µg/mL (≈ 0.499 µM)	> 16 µg/mL	COc1ccc2nccc(-n3cc4c(n3)CCC(NC(=O)c3cc5c(cc3C)SCC(=O)N5)C4)c2n1 (stereo not shown) [Example 133, 7-Methyl-3-oxo-3,4-dihydro-2H-benzo[1,4]thiazine-6-carboxylic acid [2-(6-methoxy-[1,5]naphthyridin-4-yl)-4,5,6,7-tetrahydro-2H-indazol-5-yl]-amide]				
0.5 µg/mL (≈ 0.895 µM)	> 16 µg/mL	0.5 µg/mL (≈ 0.895 µM)	> 16 µg/mL	CCOC(=O)c1cc2c(cc1C(=O)NC1CCc3nn(-c4ccnc5ccc(OC)nc45)cc3C1)NC(=O)CS2 (stereo not shown) [Example 137, 6-[2-(6-Methoxy-[1,5]naphthyridin-4-yl)-4,5,6,7-tetrahydro-2H-indazol-5-ylcarbamoyl]-3-oxo-3,4-dihydro-2H-benzo[1,4]thiazine-7-carboxylic acid ethyl ester]				
0.5 µg/mL (≈ 0.942 µM)	> 16 µg/mL	0.5 µg/mL (≈ 0.942 µM)	16 µg/mL (≈ 30.2 µM)	COc1ccc2nccc(-n3cc4c(n3)CCC(NC(=O)c3cc5c(cc3C(=O)O)SCC(=O)N5)C4)c2n1 (stereo not shown) [Example 138, 6-[2-(6-Methoxy-[1,5]naphthyridin-4-yl)-4,5,6,7-tetrahydro-2H-indazol-5-ylcarbamoyl]-3-oxo-3,4-dihydro-2H-benzo[1,4]thiazine-7-carboxylic acid]				
0.5 µg/mL (≈ 1.11 µM)	> 16 µg/mL	1 µg/mL (≈ 2.21 µM)	4 µg/mL (≈ 8.86 µM)	COc1ccc2nccc(-n3cc4c(n3)CCC(NCCOc3cc(F)cc(F)c3)C4)c2n1 (stereo not shown) [Example 134, [2-(3,5-Difluoro-phenoxy)-ethyl]-[2-(6-methoxy-[1,5]naphthyridin-4-yl)-4,5,6,7-tetrahydro-2H-indazol-5-yl]-amine]				

The remaining lines, values behind:

Structure (SMILES)	MIC ([1]; CipR MRSA OC4222)	MIC [2, 5]	MIC [3, 6]	MIC [4, 7]	MIC ([1]; MRSA)	MIC ([2]; ATCC25922, read-out: E. coli MIC, data marked (*))	MIC ([3]; Staphylococcus aureus, ATCC13709, read-out: S. aureus ATCC13709 MIC)	MIC ([4]; Streptococcus pneumoniae, ATCC49619, read-out: S. pneumoniae ATCC49619 MIC)
COc1ccc2nccc(-n3ncc4c3CCC(NC(=O)c3cc5c(cc3C)SCC(=O)N5)C4)c2c1 (stereo not shown) [Example 132, 7-Methyl-3-oxo-3,4-dihydro-2H-benzo[1,4]thiazine-6-carboxylic acid [1-(6-methoxy-quinolin-4-yl)-4,5,6,7-tetrahydro-1H-indazol-5-yl]-amide]	2 µg/mL (≈ 4 µM)	> 16 µg/mL	2 µg/mL (≈ 4 µM)	> 16 µg/mL				
COc1ccc2nccc(-n3cc4c(n3)CCC(NC(=O)c3cc5c(cc3OC)SCC(=O)N5)C4)c2n1 (stereo not shown) [Example 130, 7-Methoxy-3-oxo-3,4-dihydro-2H-benzo[1,4]thiazine-6-carboxylic acid [2-(6-methoxy-[1,5]naphthyridin-4-yl)-4,5,6,7-tetrahydro-2H-indazol-5-yl]-amide]	2 µg/mL (≈ 3.87 µM)	> 16 µg/mL	2 µg/mL (≈ 3.87 µM)	16 µg/mL (≈ 31 µM)				
COc1ccc2nccc(-n3cc4c(n3)CCC(NCc3cc5c(cc3F)SCCN5)C4)c2n1 (stereo not shown) [Example 107, (7-Fluoro-3,4-dihydro-2H-benzo[1,4]thiazin-6-ylmethyl)-[2-(6-methoxy-[1,5]naphthyridin-4-yl)-4,5,6,7-tetrahydro-2H-indazol-5-yl]-amine]	0.5 µg/mL (≈ 1.05 µM)	8 µg/mL (≈ 16.8 µM)	0.25 µg/mL (≈ 0.525 µM)	2 µg/mL (≈ 4.2 µM)				
COc1ccc2nccc(-n3cc4c(n3)CCC(NC(=O)c3cc5c(cc3C(=O)O)SCC(=O)N5)C4)c2c1 (stereo not shown) [Example 136, 6-[2-(6-Methoxy-quinolin-4-yl)-4,5,6,7-tetrahydro-2H-indazol-5-ylcarbamoyl]-3-oxo-3,4-dihydro-2H-benzo[1,4]thiazine-7-carboxylic acid, potassium salt]					2 µg/mL	> 16 µg/mL	1 µg/mL	> 16 µg/mL
COc1ccc2nccc(-n3cc4c(n3)CCC(NC(=O)c3ccc5c(c3)NC(=O)C(C)(C)S5)C4)c2c1 (stereo not shown) [Example 129, 2,2-Dimethyl-3-oxo-3,4-dihydro-2H-benzo[1,4]thiazine-6-carboxylic acid [2-(6-methoxy-quinolin-4-yl)-4,5,6,7-tetrahydro-2H-indazol-5-yl]-amide]	1 µg/mL (≈ 1.95 µM)	> 16 µg/mL	1 µg/mL (≈ 1.95 µM)	4 µg/mL (≈ 7.79 µM)				
